Key:
Type in all cases: cell-based
OVCAR-8 = assay: NCI-60 one-dose screen; details: Homo sapiens; OVCAR-8, Ovarian Cancer panel; single dose 10^−5 M; read-out: Growth inhibition %
OVCAR-5 = assay: NCI-60 one-dose screen; details: Homo sapiens; OVCAR-5, Ovarian Cancer panel; single dose 10^−5 M; read-out: Growth inhibition %
SK-MEL-5 = assay: NCI-60 one-dose screen; details: Homo sapiens; SK-MEL-5, Melanoma panel; single dose 10^−5 M; read-out: Growth inhibition %
HOP-62 = assay: NCI-60 one-dose screen; details: Homo sapiens; HOP-62, Non-small cell lung panel; single dose 10^−5 M; read-out: Growth inhibition %
U251 = assay: NCI-60 one-dose screen; details: Homo sapiens, U-251; U251, CNS Cancer panel; single dose 10^−5 M; read-out: Growth inhibition %
MDA-MB-231/ATCC = assay: NCI-60 one-dose screen; details: Homo sapiens, Breast Cancer panel, single dose 10^−5 M, read-out: Growth inhibition %
NCI-H226 = assay: NCI-60 one-dose screen; details: Homo sapiens; NCI-H226, Non-small cell lung panel; single dose 10^−5 M; read-out: Growth inhibition %
SNB-75 = assay: NCI-60 one-dose screen; details: Homo sapiens; SNB-75, CNS Cancer panel; single dose 10^−5 M; read-out: Growth inhibition %
MDA-MB-435 = assay: NCI-60 one-dose screen; details: Homo sapiens; MDA-MB-435, Melanoma panel; single dose 10^−5 M; read-out: Growth inhibition %
T-47D = assay: NCI-60 one-dose screen; details: Homo sapiens, T47D, Breast Cancer panel, single dose 10^−5 M, read-out: Growth inhibition %
UO-31 = assay: NCI-60 one-dose screen; details: Homo sapiens; UO-31, Renal Cancer panel; single dose 10^−5 M; read-out: Growth inhibition %
NCI/ADR-RES = assay: NCI-60 one-dose screen; details: Homo sapiens, Ovarian Cancer panel, single dose 10^−5 M, read-out: Growth inhibition %
A549/ATCC = assay: NCI-60 one-dose screen; details: Homo sapiens, Non-small cell lung panel, single dose 10^−5 M, read-out: Growth inhibition %
NCI-H23 = assay: NCI-60 one-dose screen; details: Homo sapiens; NCI-H23, Non-small cell lung panel; single dose 10^−5 M; read-out: Growth inhibition %
HCC-2998 = assay: NCI-60 one-dose screen; details: Homo sapiens; HCC-2998, Colon Cancer panel; single dose 10^−5 M; read-out: Growth inhibition %
CAKI-1 = assay: NCI-60 one-dose screen; details: Homo sapiens; CAKI-1, Renal Cancer panel; single dose 10^−5 M; read-out: Growth inhibition %
SN12C = assay: NCI-60 one-dose screen; details: Homo sapiens, Renal Cancer panel, single dose 10^−5 M, read-out: Growth inhibition %
COLO 205 = assay: NCI-60 one-dose screen; details: Homo sapiens; COLO 205, Colon Cancer panel; single dose 10^−5 M; read-out: Growth inhibition %
K-562 = assay: NCI-60 one-dose screen; details: Homo sapiens, K562; K-562, Leukemia panel; single dose 10^−5 M; read-out: Growth inhibition %
ACHN = assay: NCI-60 one-dose screen; details: Homo sapiens, Renal Cancer panel, single dose 10^−5 M, read-out: Growth inhibition %
OVCAR-4 = assay: NCI-60 one-dose screen; details: Homo sapiens; OVCAR-4, Ovarian Cancer panel; single dose 10^−5 M; read-out: Growth inhibition %
SF-295 = assay: NCI-60 one-dose screen; details: Homo sapiens; SF-295, CNS Cancer panel; single dose 10^−5 M; read-out: Growth inhibition %
HOP-92 = assay: NCI-60 one-dose screen; details: Homo sapiens; HOP-92, Non-small cell lung panel; single dose 10^−5 M; read-out: Growth inhibition %
OVCAR-3 = assay: NCI-60 one-dose screen; details: Homo sapiens; OVCAR-3, Ovarian Cancer panel; single dose 10^−5 M; read-out: Growth inhibition %
UACC-62 = assay: NCI-60 one-dose screen; details: Homo sapiens; UACC-62, Melanoma panel; single dose 10^−5 M; read-out: Growth inhibition %
RXF 393 = assay: NCI-60 one-dose screen; details: Homo sapiens; RXF 393, Renal Cancer panel; single dose 10^−5 M; read-out: Growth inhibition %
DU-145 = assay: NCI-60 one-dose screen; details: Homo sapiens; DU-145, Prostate Cancer panel; single dose 10^−5 M; read-out: Growth inhibition %
SNB-19 = assay: NCI-60 one-dose screen; details: Homo sapiens; SNB-19, CNS Cancer panel; single dose 10^−5 M; read-out: Growth inhibition %
SK-OV-3 = assay: NCI-60 one-dose screen; details: Homo sapiens; SK-OV-3, Ovarian Cancer panel; single dose 10^−5 M; read-out: Growth inhibition %
SK-MEL-2 = assay: NCI-60 one-dose screen; details: Homo sapiens; SK-MEL-2, Melanoma panel; single dose 10^−5 M; read-out: Growth inhibition %
[1] = tested on: panel of 60 human tumor cell lines; assay: NCI 60-cell line one-dose screen (mean); details: mean of the 60 cell lines, single dose 10^−5 M, read-out: Mean % Growth Inhibition
Summary of the method: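 Human tumour lines (NCI-60, 9 tissue origins) exposed to test compound at a fixed 10^−5 M; % inhibition determined by the NCI DTP.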

## Cc1ccccc1CNc1c2ccccc2nc2ccccc12 [Compound 2, Acridin-9-yl-(2-methylbenzyl)-amine]
OVCAR-8
  inhibition at 10 µM: 79%
OVCAR-5
  inhibition at 10 µM: 63.3%
SK-MEL-5
  inhibition at 10 µM: 66.1%
HOP-62
  inhibition at 10 µM: 71.9%
U251
  inhibition at 10 µM: 78.7%
MDA-MB-231/ATCC
  inhibition at 10 µM: 60.1%
NCI-H226
  inhibition at 10 µM: 68.5%
SNB-75
  inhibition at 10 µM: 54.7%
MDA-MB-435
  inhibition at 10 µM: 76.1%
T-47D
  inhibition at 10 µM: 75.5%
UO-31
  inhibition at 10 µM: 84.5%
NCI/ADR-RES
  inhibition at 10 µM: 75.2%
A549/ATCC
  inhibition at 10 µM: 80.3%
NCI-H23
  inhibition at 10 µM: 76.6%
HCC-2998
  inhibition at 10 µM: 83.8%
CAKI-1
  inhibition at 10 µM: 74.9%
SN12C
  inhibition at 10 µM: 75.7%
COLO 205
  inhibition at 10 µM: 119%
K-562
  inhibition at 10 µM: 95%
ACHN
  inhibition at 10 µM: 88.4%
OVCAR-4
  inhibition at 10 µM: 67.1%
SF-295
  inhibition at 10 µM: 70.5%
HOP-92
  inhibition at 10 µM: 101%
OVCAR-3
  inhibition at 10 µM: 68.7%
UACC-62
  inhibition at 10 µM: 53.3%
RXF 393
  inhibition at 10 µM: 92.2%
DU-145
  inhibition at 10 µM: 69.4%
SNB-19
  inhibition at 10 µM: 72.9%
SK-OV-3
  inhibition at 10 µM: 59.2%
SK-MEL-2
  inhibition at 10 µM: 59.9%
[1]
  inhibition at 10 µM: 77.7%

## COc1cccc(CNc2c3ccccc3nc3ccccc23)c1 [Compound 6, Acridin-9-yl-(3-methoxybenzyl)-amine]
OVCAR-8
  inhibition at 10 µM: 68.1%
OVCAR-5
  inhibition at 10 µM: 54.1%
SK-MEL-5
  inhibition at 10 µM: 42.4%
HOP-62
  inhibition at 10 µM: 53.5%
U251
  inhibition at 10 µM: 61.3%
MDA-MB-231/ATCC
  inhibition at 10 µM: 50.1%
NCI-H226
  inhibition at 10 µM: 51.9%
SNB-75
  inhibition at 10 µM: 43.1%
MDA-MB-435
  inhibition at 10 µM: 57%
T-47D
  inhibition at 10 µM: 54.1%
UO-31
  inhibition at 10 µM: 73%
NCI/ADR-RES
  inhibition at 10 µM: 62.5%
A549/ATCC
  inhibition at 10 µM: 69.8%
NCI-H23
  inhibition at 10 µM: 62.7%
HCC-2998
  inhibition at 10 µM: 60.7%
CAKI-1
  inhibition at 10 µM: 64.3%
SN12C
  inhibition at 10 µM: 62.1%
COLO 205
  inhibition at 10 µM: 90.4%
K-562
  inhibition at 10 µM: 93.4%
ACHN
  inhibition at 10 µM: 80.8%
OVCAR-4
  inhibition at 10 µM: 56.4%
SF-295
  inhibition at 10 µM: 64%
HOP-92
  inhibition at 10 µM: 74.5%
OVCAR-3
  inhibition at 10 µM: 45.2%
UACC-62
  inhibition at 10 µM: 36.5%
RXF 393
  inhibition at 10 µM: 86.2%
DU-145
  inhibition at 10 µM: 46.7%
SNB-19
  inhibition at 10 µM: 64%
SK-OV-3
  inhibition at 10 µM: 45.3%
SK-MEL-2
  inhibition at 10 µM: 32.1%
[1]
  inhibition at 10 µM: 63.1%

## Fc1cccc(CNc2c3ccccc3nc3ccccc23)c1 [Compound 9, Acridin-9-yl-(3-fluorobenzyl)-amine]
OVCAR-8
  inhibition at 10 µM: 64%
OVCAR-5
  inhibition at 10 µM: 56.2%
SK-MEL-5
  inhibition at 10 µM: 39.5%
HOP-62
  inhibition at 10 µM: 52.1%
U251
  inhibition at 10 µM: 64.8%
MDA-MB-231/ATCC
  inhibition at 10 µM: 69.4%
NCI-H226
  inhibition at 10 µM: 49.4%
SNB-75
  inhibition at 10 µM: 37%
MDA-MB-435
  inhibition at 10 µM: 51.1%
T-47D
  inhibition at 10 µM: 57.3%
UO-31
  inhibition at 10 µM: 76%
NCI/ADR-RES
  inhibition at 10 µM: 69.9%
A549/ATCC
  inhibition at 10 µM: 70.8%
NCI-H23
  inhibition at 10 µM: 66.1%
HCC-2998
  inhibition at 10 µM: 70.1%
CAKI-1
  inhibition at 10 µM: 73%
SN12C
  inhibition at 10 µM: 67.2%
COLO 205
  inhibition at 10 µM: 82.7%
K-562
  inhibition at 10 µM: 84.3%
ACHN
  inhibition at 10 µM: 82.9%
OVCAR-4
  inhibition at 10 µM: 69.5%
SF-295
  inhibition at 10 µM: 74.8%
HOP-92
  inhibition at 10 µM: 104%
OVCAR-3
  inhibition at 10 µM: 33%
UACC-62
  inhibition at 10 µM: 49.7%
RXF 393
  inhibition at 10 µM: 67.2%
DU-145
  inhibition at 10 µM: 58.3%
SNB-19
  inhibition at 10 µM: 64.1%
SK-OV-3
  inhibition at 10 µM: 48.9%
SK-MEL-2
  inhibition at 10 µM: 18.6%
[1]
  inhibition at 10 µM: 64.2%

## COc1ccc2nc3ccccc3c(NCc3ccc(F)cc3)c2c1 [Compound 28, (4-Fluorobenzyl)-(2-methoxyacridin-9-yl)-amine]
OVCAR-8
  inhibition at 10 µM: 80.5%
OVCAR-5
  inhibition at 10 µM: 82%
SK-MEL-5
  inhibition at 10 µM: 107%
HOP-62
  inhibition at 10 µM: 71.8%
U251
  inhibition at 10 µM: 77.9%
MDA-MB-231/ATCC
  inhibition at 10 µM: 83.3%
NCI-H226
  inhibition at 10 µM: 70%
SNB-75
  inhibition at 10 µM: 76.2%
MDA-MB-435
  inhibition at 10 µM: 76.1%
T-47D
  inhibition at 10 µM: 63.5%
UO-31
  inhibition at 10 µM: 108%
NCI/ADR-RES
  inhibition at 10 µM: 84.9%
A549/ATCC
  inhibition at 10 µM: 80.3%
NCI-H23
  inhibition at 10 µM: 86%
HCC-2998
  inhibition at 10 µM: 178%
CAKI-1
  inhibition at 10 µM: 92.8%
SN12C
  inhibition at 10 µM: 83%
COLO 205
  inhibition at 10 µM: 154%
K-562
  inhibition at 10 µM: 98%
ACHN
  inhibition at 10 µM: 94.3%
OVCAR-4
  inhibition at 10 µM: 86.4%
SF-295
  inhibition at 10 µM: 85.6%
HOP-92
  inhibition at 10 µM: 111%
OVCAR-3
  inhibition at 10 µM: 68.8%
UACC-62
  inhibition at 10 µM: 60.9%
RXF 393
  inhibition at 10 µM: 119%
DU-145
  inhibition at 10 µM: 83.5%
SNB-19
  inhibition at 10 µM: 82.3%
SK-OV-3
  inhibition at 10 µM: 62.1%
SK-MEL-2
  inhibition at 10 µM: 65%
[1]
  inhibition at 10 µM: 92.2%
